The kinase profiling compilation of Christmann-Franck et al. (2016)

Columns and labels:
Assay in all cases: KINOMEscan competition binding
Settings in all cases: compound 10.0 µM
MAPK1 (human) = MAPK1 (human) (UniProt P28482)
PIK3CB (human) = PIK3CB (human) (UniProt P42338)
SIK3 (human) = SIK3 (human) (UniProt Q9Y2K2)
LCK (human) = LCK (human) (UniProt P06239)
GRK4 (human) = GRK4 (human) (UniProt P32298)
HIPK4 (human) = HIPK4 (human) (UniProt Q8NE63)
TNK2 (human) = TNK2 (human) (UniProt Q07912)
[1] = system: PIK3CA (human), P42336 [I800L]
Sequence of PIK3CA (human), P42336 [I800L] (P42336 whole entry I800L, looked up): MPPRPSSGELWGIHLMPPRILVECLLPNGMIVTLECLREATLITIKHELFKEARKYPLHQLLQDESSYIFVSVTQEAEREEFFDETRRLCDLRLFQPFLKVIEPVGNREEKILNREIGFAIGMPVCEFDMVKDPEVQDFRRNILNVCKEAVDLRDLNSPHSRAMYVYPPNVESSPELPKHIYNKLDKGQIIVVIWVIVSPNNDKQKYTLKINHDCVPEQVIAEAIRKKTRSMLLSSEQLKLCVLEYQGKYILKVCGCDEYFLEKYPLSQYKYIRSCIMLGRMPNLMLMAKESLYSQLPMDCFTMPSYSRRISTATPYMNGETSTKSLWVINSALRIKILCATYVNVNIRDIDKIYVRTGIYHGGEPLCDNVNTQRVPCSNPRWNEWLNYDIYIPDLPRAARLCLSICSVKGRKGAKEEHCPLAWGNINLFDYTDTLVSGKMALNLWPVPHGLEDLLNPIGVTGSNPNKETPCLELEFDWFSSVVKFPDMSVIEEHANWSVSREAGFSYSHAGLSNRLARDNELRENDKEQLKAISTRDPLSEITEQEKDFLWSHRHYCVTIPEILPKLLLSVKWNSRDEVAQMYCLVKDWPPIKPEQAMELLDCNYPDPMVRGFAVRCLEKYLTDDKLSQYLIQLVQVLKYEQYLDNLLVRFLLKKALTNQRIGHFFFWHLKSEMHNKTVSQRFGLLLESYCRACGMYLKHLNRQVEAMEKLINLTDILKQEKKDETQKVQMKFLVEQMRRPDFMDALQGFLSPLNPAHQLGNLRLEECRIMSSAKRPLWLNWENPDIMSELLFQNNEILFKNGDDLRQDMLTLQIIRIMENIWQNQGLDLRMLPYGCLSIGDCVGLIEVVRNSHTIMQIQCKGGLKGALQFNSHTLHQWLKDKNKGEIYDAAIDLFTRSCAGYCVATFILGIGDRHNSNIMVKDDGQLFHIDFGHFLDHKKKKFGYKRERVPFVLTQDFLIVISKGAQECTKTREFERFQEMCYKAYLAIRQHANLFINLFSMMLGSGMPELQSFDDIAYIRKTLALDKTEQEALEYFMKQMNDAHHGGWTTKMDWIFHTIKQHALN

[2] = system: FGFR3 (human), P22607 [G697C]
CAMKK1 (human) = CAMKK1 (human) (UniProt Q8N5S9)
EPHA7 (human) = EPHA7 (human) (UniProt Q15375)
[3] = system: KIT (human), P10721 [D816H]
Sequence of KIT (human), P10721 [D816H] (P10721 whole entry D816H, looked up): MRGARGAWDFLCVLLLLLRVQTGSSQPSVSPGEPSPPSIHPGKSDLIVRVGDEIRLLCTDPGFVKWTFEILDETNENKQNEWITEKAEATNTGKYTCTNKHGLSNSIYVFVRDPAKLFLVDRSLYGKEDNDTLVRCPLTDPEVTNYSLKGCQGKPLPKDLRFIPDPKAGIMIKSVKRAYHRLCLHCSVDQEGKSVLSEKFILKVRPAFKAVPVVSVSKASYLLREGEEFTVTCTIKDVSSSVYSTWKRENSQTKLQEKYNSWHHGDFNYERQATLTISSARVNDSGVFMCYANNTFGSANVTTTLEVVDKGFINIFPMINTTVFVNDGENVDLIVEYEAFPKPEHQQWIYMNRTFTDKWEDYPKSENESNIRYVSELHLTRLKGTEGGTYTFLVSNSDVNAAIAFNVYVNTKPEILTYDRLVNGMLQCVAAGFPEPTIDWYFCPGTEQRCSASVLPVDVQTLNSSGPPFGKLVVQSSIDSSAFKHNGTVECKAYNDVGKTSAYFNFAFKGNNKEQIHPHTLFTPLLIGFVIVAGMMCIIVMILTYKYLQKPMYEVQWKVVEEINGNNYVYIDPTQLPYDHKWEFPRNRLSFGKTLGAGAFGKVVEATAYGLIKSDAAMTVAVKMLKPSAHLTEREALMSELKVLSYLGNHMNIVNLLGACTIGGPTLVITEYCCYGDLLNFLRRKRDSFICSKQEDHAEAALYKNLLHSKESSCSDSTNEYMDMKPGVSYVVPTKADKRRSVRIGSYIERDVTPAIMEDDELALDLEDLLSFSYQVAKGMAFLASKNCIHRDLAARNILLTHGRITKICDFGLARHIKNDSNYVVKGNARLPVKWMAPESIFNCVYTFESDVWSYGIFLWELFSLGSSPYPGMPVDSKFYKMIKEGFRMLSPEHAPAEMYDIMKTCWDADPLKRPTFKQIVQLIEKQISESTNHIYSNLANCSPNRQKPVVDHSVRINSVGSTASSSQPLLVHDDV

MAPK13 (human) = MAPK13 (human) (UniProt O15264)
[4] = system: KIT (human), P10721 [D816V]
Sequence of KIT (human), P10721 [D816V] (P10721 whole entry D816V, looked up): as the sequence (P10721 whole entry D816H, looked up) above, with H816V counted along it

EPHB1 (human) = EPHB1 (human) (UniProt P54762)
[5] = system: RET (human), P07949 [M918T]
STK17A (human) = STK17A (human) (UniProt Q9UEE5)
PIM1 (human) = PIM1 (human) (UniProt P11309)
EPHA2 (human) = EPHA2 (human) (UniProt P29317)
MAP3K2 (human) = MAP3K2 (human) (UniProt Q9Y2U5)
IKBKB (human) = IKBKB (human) (UniProt O14920)
MKNK2 (human) = MKNK2 (human) (UniProt Q9HBH9)
CSNK1A1 (human) = CSNK1A1 (human) (UniProt P48729)
MAP3K6 (human) = MAP3K6 (human) (UniProt O95382)
NEK5 (human) = NEK5 (human) (UniProt Q6P3R8)
RPS6KA2 KD1 (human) = RPS6KA2 KD1 (human) (UniProt Q15349)
[6] = system: PIK3CA (human), P42336 [Q546K]
Sequence of PIK3CA (human), P42336 [Q546K] (P42336 whole entry Q546K, looked up): as the sequence (P42336 whole entry I800L, looked up) above, with Q546K, L800I counted along it

FER (human) = FER (human) (UniProt P16591)
CDK5 (human) = CDK5 (human) (UniProt Q00535)
Sequence of CDK5 (human) (Q00535 whole entry, looked up): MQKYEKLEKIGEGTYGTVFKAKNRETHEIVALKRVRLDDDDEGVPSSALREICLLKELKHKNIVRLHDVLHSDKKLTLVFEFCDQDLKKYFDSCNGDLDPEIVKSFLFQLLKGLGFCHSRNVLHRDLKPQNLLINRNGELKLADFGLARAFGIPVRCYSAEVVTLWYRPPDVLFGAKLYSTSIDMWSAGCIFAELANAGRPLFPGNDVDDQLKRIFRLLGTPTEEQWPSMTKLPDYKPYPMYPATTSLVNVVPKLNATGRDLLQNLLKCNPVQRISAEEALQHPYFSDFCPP

[7] = system: PIK3CA (human), P42336 [M1043I]
Sequence of PIK3CA (human), P42336 [M1043I] (P42336 whole entry M1043I, looked up): as the sequence (P42336 whole entry I800L, looked up) above, with L800I, M1043I counted along it

TTK (human) = TTK (human) (UniProt P33981)
DDR2 (human) = DDR2 (human) (UniProt Q16832)
EPHB2 (human) = EPHB2 (human) (UniProt P29323)
[8] = system: FLT3 (human), P36888 [D835H]
ULK2 (human) = ULK2 (human) (UniProt Q8IYT8)
CAMK2B (human) = CAMK2B (human) (UniProt Q13554)
[9] = system: EIF2AK4 KD2 (human), Q9P2K8 [S808G]
CDC42BPB (human) = CDC42BPB (human) (UniProt Q9Y5S2)
STK16 (human) = STK16 (human) (UniProt O75716)
Sequence of STK16 (human) (O75716 whole entry, looked up): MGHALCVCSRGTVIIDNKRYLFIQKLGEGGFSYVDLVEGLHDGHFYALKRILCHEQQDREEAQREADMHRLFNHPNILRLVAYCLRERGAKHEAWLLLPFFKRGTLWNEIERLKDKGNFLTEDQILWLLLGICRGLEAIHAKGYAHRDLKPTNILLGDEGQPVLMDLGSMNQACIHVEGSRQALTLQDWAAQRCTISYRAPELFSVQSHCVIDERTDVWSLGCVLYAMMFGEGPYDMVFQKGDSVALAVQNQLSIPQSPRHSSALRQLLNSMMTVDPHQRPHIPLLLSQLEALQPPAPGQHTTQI

MAP4K3 (human) = MAP4K3 (human) (UniProt Q8IVH8)
MINK1 (human) = MINK1 (human) (UniProt Q8N4C8)

Sequence of LCK (human) (P06239 whole entry, looked up): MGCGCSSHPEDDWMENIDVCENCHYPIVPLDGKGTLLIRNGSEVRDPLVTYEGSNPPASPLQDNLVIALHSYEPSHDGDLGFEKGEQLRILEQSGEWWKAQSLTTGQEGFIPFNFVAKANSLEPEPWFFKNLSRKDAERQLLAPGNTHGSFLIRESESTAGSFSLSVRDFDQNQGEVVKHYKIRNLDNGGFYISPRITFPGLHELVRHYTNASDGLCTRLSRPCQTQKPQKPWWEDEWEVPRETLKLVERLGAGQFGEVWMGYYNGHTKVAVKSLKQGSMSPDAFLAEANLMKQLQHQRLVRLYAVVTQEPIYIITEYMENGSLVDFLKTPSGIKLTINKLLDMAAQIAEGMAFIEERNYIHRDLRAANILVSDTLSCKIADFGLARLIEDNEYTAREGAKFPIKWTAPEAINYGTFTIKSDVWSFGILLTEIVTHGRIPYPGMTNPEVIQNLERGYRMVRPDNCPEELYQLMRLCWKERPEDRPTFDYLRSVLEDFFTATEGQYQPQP
Sequence of SIK3 (human) (Q9Y2K2 whole entry, looked up): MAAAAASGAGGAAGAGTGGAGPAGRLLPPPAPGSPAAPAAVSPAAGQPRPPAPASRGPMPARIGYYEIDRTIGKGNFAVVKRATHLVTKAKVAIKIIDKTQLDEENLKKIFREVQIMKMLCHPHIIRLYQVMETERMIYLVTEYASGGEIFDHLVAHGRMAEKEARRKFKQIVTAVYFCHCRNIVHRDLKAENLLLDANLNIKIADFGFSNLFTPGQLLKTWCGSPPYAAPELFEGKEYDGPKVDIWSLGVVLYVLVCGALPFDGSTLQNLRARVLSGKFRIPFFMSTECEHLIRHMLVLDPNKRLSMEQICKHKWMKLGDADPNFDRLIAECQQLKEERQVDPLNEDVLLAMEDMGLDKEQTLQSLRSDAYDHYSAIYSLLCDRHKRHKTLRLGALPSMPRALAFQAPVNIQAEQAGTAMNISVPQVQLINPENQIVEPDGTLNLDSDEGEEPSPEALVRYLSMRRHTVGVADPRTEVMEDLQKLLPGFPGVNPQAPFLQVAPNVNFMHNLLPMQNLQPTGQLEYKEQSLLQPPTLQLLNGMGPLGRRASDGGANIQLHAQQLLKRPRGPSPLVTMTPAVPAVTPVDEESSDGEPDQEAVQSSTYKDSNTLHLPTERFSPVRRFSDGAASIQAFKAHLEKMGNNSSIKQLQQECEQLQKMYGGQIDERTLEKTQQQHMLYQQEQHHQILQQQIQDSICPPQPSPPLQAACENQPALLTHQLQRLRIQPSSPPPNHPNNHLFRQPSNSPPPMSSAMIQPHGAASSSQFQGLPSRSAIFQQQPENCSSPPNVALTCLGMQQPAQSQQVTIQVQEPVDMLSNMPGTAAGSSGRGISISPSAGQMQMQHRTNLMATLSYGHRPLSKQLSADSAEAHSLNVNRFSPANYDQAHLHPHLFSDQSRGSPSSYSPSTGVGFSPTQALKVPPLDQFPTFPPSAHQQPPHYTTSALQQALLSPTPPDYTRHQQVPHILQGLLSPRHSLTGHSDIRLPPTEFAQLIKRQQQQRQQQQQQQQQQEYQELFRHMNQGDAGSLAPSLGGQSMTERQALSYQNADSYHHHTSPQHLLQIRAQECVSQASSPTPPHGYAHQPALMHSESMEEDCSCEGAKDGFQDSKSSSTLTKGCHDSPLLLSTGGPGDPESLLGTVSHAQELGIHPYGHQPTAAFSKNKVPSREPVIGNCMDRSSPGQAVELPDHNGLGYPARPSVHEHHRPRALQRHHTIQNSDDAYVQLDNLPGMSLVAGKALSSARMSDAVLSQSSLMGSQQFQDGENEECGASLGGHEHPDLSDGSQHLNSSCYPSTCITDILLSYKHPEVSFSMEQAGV
Sequence of MAPK1 (human) (P28482 whole entry, looked up): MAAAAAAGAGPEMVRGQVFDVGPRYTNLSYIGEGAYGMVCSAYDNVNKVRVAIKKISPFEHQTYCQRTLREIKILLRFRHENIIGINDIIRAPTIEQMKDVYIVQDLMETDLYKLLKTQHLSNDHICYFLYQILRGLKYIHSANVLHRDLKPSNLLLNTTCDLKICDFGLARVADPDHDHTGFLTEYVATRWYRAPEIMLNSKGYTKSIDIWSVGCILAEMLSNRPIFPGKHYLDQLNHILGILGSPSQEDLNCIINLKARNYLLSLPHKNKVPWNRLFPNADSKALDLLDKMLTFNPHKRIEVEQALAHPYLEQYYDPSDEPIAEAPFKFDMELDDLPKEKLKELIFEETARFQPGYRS

Q: What does the source list for `COc1ccc(-c2ccc3c(N4CCOCC4)nc(N4C[C@@H](C)O[C@@H](C)C4)nc3n2)cc1CO`?
A: kinase still bound, per cent of control (MAPK1 (human)): 100%; kinase still bound, per cent of control (PIK3CB (human)): 30%; kinase still bound, per cent of control (SIK3 (human)): 97%; kinase still bound, per cent of control (LCK (human)): 98%; kinase still bound, per cent of control (GRK4 (human)): 67%; kinase still bound, per cent of control (HIPK4 (human)): 88%; kinase still bound, per cent of control (TNK2 (human)): 100%; kinase still bound, per cent of control [1]: 0%; kinase still bound, per cent of control [2]: 77%; kinase still bound, per cent of control (CAMKK1 (human)): 100%; kinase still bound, per cent of control (EPHA7 (human)): 86%; kinase still bound, per cent of control [3]: 100%; kinase still bound, per cent of control (MAPK13 (human)): 71%; kinase still bound, per cent of control [4]: 94%; kinase still bound, per cent of control (EPHB1 (human)): 100%; kinase still bound, per cent of control [5]: 100%; kinase still bound, per cent of control (STK17A (human)): 96%; kinase still bound, per cent of control (PIM1 (human)): 94%; kinase still bound, per cent of control (EPHA2 (human)): 100%; kinase still bound, per cent of control (MAP3K2 (human)): 78%; kinase still bound, per cent of control (IKBKB (human)): 100%; kinase still bound, per cent of control (MKNK2 (human)): 75%; kinase still bound, per cent of control (CSNK1A1 (human)): 100%; kinase still bound, per cent of control (MAP3K6 (human)): 91%; kinase still bound, per cent of control (NEK5 (human)): 100%; kinase still bound, per cent of control (RPS6KA2 KD1 (human)): 100%; kinase still bound, per cent of control [6]: 2.8%; kinase still bound, per cent of control (FER (human)): 100%; per cent of control (CDK5 (human)): 100%; kinase still bound, per cent of control [7]: 2%; kinase still bound, per cent of control (TTK (human)): 95%; kinase still bound, per cent of control (DDR2 (human)): 100%; kinase still bound, per cent of control (EPHB2 (human)): 100%; kinase still bound, per cent of control [8]: 100%; kinase still bound, per cent of control (ULK2 (human)): 100%; kinase still bound, per cent of control (CAMK2B (human)): 96%; kinase still bound, per cent of control [9]: 66%; kinase still bound, per cent of control (CDC42BPB (human)): 81%; kinase still bound, per cent of control (STK16 (human)): 93%; kinase still bound, per cent of control (MAP4K3 (human)): 85%; kinase still bound, per cent of control (MINK1 (human)): 100%
